Measurements as given in patent US20230312550A1, “N-(2-(4-CYANOTHIAZOLIDIN-3-YL)-2-OXOETHYL)-QUINOLINE-4-CARBOXAMIDES” (AstraZeneca AB, priority 2020, published 2023).
≈ marks a conversion by molar mass, not a printed value. One block for each molecule: values may come before it.

Tests used:
Kinetic solubility = details: kinetic from dmso stock
Protocol: Kinetic solubility was measured as described in Comput Aided Mol Des 2015, 29, 795.

[1] = Metabolic stability in human liver microsomes (HLM); details: for microsomal CLint: human
Protocol: Metabolic stability in HLM was measured as described in J Comput Aided Mol Des 2015, 29, 795.

[2] = molecular target: Prolyl endopeptidase, Prolyl Oligopeptidase (hPREP) (Homo sapiens (Human), UniProt P48147); test: hPrep inhibition assay; assay type: biochemical; details: hPREP 0.6 nM, Z-Gly-Pro-amino-methylcoumarin 50 μM; read-out: PREP IC50
Prolyl endopeptidase, Prolyl Oligopeptidase (hPREP), sequence (P48147 whole entry): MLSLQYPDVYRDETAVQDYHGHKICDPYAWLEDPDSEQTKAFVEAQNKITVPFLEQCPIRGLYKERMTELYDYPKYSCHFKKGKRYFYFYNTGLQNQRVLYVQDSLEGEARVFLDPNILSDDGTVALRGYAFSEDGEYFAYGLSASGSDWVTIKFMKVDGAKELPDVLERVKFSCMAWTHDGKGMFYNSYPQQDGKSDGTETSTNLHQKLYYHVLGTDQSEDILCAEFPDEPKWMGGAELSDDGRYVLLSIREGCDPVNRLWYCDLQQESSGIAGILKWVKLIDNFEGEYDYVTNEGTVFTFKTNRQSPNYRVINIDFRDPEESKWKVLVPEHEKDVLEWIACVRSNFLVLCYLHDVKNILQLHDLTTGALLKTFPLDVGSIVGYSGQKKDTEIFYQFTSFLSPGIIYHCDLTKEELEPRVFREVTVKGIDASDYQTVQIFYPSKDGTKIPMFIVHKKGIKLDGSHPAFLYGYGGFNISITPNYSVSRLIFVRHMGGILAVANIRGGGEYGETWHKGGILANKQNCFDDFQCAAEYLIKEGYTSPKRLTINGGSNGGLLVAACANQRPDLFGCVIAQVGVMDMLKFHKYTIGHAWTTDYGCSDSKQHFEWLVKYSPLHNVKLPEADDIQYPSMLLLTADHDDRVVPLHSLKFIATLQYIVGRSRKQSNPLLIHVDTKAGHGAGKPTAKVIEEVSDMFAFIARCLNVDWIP
Protocol: Compounds were tested in a biochemical inhibition assay using Prolyl endopeptidase, Prolyl Oligopeptidase (hPREP) enzyme at 0.6 nM FAC (R&D Systems, 4308-SE) and the substrate Z-Gly-Pro-amino-methylcoumarin (Bachem, I-1145) at 50 μM FAC. 384 Low volume black plates (Greiner #784076) were used. […] Plates were incubated for 15 min at rt in dark. 4 μL, 100 μM substrate solution (25 mM Tris HCl, 250 mM NaCl, 0.01% Triton X-100, 5 mM Glutathione, pH 7.5) was added to each well. Plates were centrifuged at 1000 rpm and incubated for 20 min at rt in dark. The plates were read on a PHERAstar® reader with excitation 340 nm and emission 460 nm. Data were analyzed in Genedata Screener®. IC50 values were determined by plotting % inhibition versus log compound concentration and using a one site dose response model.

hFAP (M39-A757) = hFAP (M39-A757) (Homo sapiens (Human), UniProt Q12884); test: hFAP binding assay (surface plasmon resonance); details: SPR, 20° C.; for hFAP Binding assay k(off) / hFAP Binding assay k(on): single cycle kinetics; for Kd: n = 1 or geometric mean n = 2-4
hFAP (M39-A757), sequence (Q12884 39-757): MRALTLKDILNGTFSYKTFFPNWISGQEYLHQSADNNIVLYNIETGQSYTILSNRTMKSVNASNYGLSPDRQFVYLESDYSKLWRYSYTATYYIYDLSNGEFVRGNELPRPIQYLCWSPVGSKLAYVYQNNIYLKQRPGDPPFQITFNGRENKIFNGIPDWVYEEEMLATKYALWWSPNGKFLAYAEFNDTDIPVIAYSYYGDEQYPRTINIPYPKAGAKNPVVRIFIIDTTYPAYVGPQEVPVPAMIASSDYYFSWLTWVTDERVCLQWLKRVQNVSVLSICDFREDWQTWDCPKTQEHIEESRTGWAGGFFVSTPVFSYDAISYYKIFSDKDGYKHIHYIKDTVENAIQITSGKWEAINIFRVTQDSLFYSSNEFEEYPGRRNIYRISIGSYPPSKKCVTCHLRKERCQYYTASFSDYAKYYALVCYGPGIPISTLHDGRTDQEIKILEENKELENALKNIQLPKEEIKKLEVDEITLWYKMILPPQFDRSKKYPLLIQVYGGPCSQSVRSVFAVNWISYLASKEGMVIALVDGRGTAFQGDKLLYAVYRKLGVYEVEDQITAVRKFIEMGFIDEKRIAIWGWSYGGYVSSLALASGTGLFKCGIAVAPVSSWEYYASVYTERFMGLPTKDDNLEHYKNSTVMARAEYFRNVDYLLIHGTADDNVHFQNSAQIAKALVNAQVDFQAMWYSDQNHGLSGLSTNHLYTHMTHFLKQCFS

[3] = molecular target: human Fibroblast activation protein alpha (hFAP) (Homo sapiens (Human), UniProt Q12884); test: hFAP inhibition assay (tight binders); assay type: biochemical; details: Ala-Pro-AMC 20 μM, n = 1 or geometric mean n = 2-6; further: hFAP 2.4 pM
human Fibroblast activation protein alpha (hFAP), sequence (Q12884 38-760): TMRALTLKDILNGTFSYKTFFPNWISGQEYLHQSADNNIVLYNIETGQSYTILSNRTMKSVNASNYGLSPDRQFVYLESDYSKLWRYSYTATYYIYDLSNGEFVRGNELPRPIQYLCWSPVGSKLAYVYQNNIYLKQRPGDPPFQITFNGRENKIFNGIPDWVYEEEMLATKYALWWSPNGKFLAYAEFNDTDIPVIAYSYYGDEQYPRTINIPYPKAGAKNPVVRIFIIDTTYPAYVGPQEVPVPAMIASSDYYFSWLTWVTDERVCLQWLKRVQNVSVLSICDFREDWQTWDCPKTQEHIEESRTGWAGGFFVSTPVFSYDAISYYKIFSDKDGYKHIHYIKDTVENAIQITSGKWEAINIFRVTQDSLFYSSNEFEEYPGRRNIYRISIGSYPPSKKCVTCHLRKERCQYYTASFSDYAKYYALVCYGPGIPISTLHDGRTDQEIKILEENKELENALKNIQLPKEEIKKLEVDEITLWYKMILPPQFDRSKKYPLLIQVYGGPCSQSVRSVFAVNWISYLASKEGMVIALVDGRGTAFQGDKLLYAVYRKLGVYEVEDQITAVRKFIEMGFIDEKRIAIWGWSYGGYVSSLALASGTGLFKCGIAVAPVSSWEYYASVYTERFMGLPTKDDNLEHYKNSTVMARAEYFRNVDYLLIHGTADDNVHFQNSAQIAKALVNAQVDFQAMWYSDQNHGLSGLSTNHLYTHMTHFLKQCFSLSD
Protocol: The plates were read on a PHERAstar® reader with excitation 340 nm and emission 460 nm. Data were analyzed in Genedata Screener®. IC50 values were determined by plotting % inhibition versus log compound concentration and using a one site dose response model.

[4] = Metabolic stability in rat hepatocytes (rHep); details: n = 1 or geometric mean of n = 2-3
[5] = Solubility, kinetic solubility, n = 1 or average of n = 2-3
[6] = HLM CLint, n = 1 or average of n = 2-3

SMILES: CC(F)(F)CC1CN(c2ccc3nccc(C(=O)NCC(=O)N4CSC[C@H]4C#N)c3c2)C1 [Example 140, (R)—N-(2-(4-Cyanothiazolidin-3-yl)-2-oxoethyl)-6-(3-(2,2-difluoropropyl)-azetidin-1-yl)quinoline-4-carboxamide]
solubility (Kinetic solubility; [5]): 39 µM (≈ 17.9 µg/mL) | microsomal CLint [1, 6]: 32 µL/min/mg | IC50 [2]: 840 nM | hFAP Binding assay k(off) (hFAP (M39-A757)): 0.00016 s⁻¹ | hFAP Binding assay k(on) (hFAP (M39-A757)): 2600000 M⁻¹ s⁻¹ | Kd (hFAP (M39-A757)): 0.064 nM | IC50 [3]: 0.1 nM | rHep CLint [4]: 7.7 μL/min/1E6

SMILES: N#C[C@@H]1CSCN1C(=O)CNC(=O)c1ccnc2c(Cl)cc(N3CCOCC3)cc12 [Example 180, (R)-8-Chloro-N-(2-(4-cyanothiazolidin-3-yl)-2-oxoethyl)-6-morpholino-quinoline-4-carboxamide]
solubility (Kinetic solubility; [5]): 170 µM (≈ 75.8 µg/mL) | microsomal CLint [1, 6]: 110 µL/min/mg | IC50 [2]: 590 nM | hFAP Binding assay k(off) (hFAP (M39-A757)): 0.00095 s⁻¹ | hFAP Binding assay k(on) (hFAP (M39-A757)): 560000 M⁻¹ s⁻¹ | Kd (hFAP (M39-A757)): 1.3 nM | IC50 [3]: 0.2 nM | rHep CLint [4]: 3 μL/min/1E6

SMILES: CC1(C2CC2)CN(c2ccc3nccc(C(=O)NCC(=O)N4CSC[C@H]4C#N)c3c2)C1 [Example 134, (R)—N-(2-(4-Cyanothiazolidin-3-yl)-2-oxoethyl)-6-(3-cyclopropyl-3-methylazetidin-1-yl)quinoline-4-carboxamide]
solubility (Kinetic solubility; [5]): 71 µM (≈ 30.9 µg/mL) | microsomal CLint [1, 6]: 210 µL/min/mg | IC50 [2]: 620 nM | hFAP Binding assay k(off) (hFAP (M39-A757)): 0.000080 s⁻¹ | hFAP Binding assay k(on) (hFAP (M39-A757)): 620000 M⁻¹ s⁻¹ | Kd (hFAP (M39-A757)): 0.13 nM | IC50 [3]: 0.13 nM | rHep CLint [4]: 74 μL/min/1E6

SMILES: CC1CC2(C1)CN(c1ccc3nccc(C(=O)NCC(=O)N4CSC[C@H]4C#N)c3c1)C2 [Example 149, (R)—N-(2-(4-Cyanothiazolidin-3-yl)-2-oxoethyl)-6-(6-methyl-2-azaspiro[3.3]heptan-2-yl)quinoline-4-carboxamide]
solubility (Kinetic solubility): 130 µM (≈ 56.6 µg/mL) | microsomal CLint [1]: 56 µL/min/mg | IC50 [2]: 470 nM | hFAP Binding assay k(off) (hFAP (M39-A757)): 0.000039 s⁻¹ | hFAP Binding assay k(on) (hFAP (M39-A757)): 4800000 M⁻¹ s⁻¹ | Kd (hFAP (M39-A757)): 0.0087 nM | IC50 [3]: 0.097 nM | rHep CLint [4]: 7 μL/min/1E6

SMILES: N#C[C@@H]1CSCN1C(=O)CNC(=O)c1ccnc2ccc(N3CCOC[C@@H]3C(F)(F)F)cc12 (single isomer, unassigned) [Example 84, N-(2-((R)-4-Cyanothiazolidin-3-yl)-2-oxoethyl)-6-((R*)-3-(trifluoromethyl)-morpholino)quinoline-4-carboxamide]
solubility (Kinetic solubility; [5]): 940 µM (≈ 451 µg/mL) | HLM CLint ([1]; n = 1 or average of n = 2-3): 64 µL/min/mg | IC50 [2]: 710 nM | hFAP Binding assay k(off) (hFAP (M39-A757)): 0.00011 s⁻¹ | hFAP Binding assay k(on) (hFAP (M39-A757)): 1200000 M⁻¹ s⁻¹ | Kd (hFAP (M39-A757)): 0.12 nM | IC50 [3]: 0.074 nM | rHep CLint [4]: 26 μL/min/1E6

SMILES: N#C[C@@H]1CSCN1C(=O)CNC(=O)c1ccnc2ccc(N3CC(F)(C(F)(F)F)C3)cc12 [Example 143, (R)—N-(2-(4-Cyanothiazolidin-3-yl)-2-oxoethyl)-6-(3-fluoro-3-(trifluoromethyl)azetidin-1-yl)quinoline-4-carboxamide]
solubility (Kinetic solubility; [5]): 33 µM (≈ 15.4 µg/mL) | microsomal CLint [1, 6]: 40 µL/min/mg | IC50 [2]: 460 nM | hFAP Binding assay k(off) (hFAP (M39-A757)): 0.000057 s⁻¹ | hFAP Binding assay k(on) (hFAP (M39-A757)): 1600000 M⁻¹ s⁻¹ | Kd (hFAP (M39-A757)): 0.036 nM | IC50 [3]: 0.069 nM | rHep CLint [4]: 13 μL/min/1E6

SMILES: C[C@]1(O)CCN(c2ccc3nccc(C(=O)NCC(=O)N4CSC[C@H]4C#N)c3c2)C1 [Example 168, N-(2-((R)-4-Cyanothiazolidin-3-yl)-2-oxoethyl)-6-((S)-3-hydroxy-3-methylpyrrolidin-1-yl)quinoline-4-carboxamide]
IC50 [2]: 630 nM | hFAP Binding assay k(off) (hFAP (M39-A757)): 0.000048 s⁻¹ | hFAP Binding assay k(on) (hFAP (M39-A757)): 1600000 M⁻¹ s⁻¹ | Kd (hFAP (M39-A757)): 0.032 nM | IC50 [3]: 0.16 nM

SMILES: C[C@@H]1CN(c2ccc3nccc(C(=O)NCC(=O)N4CSC[C@H]4C#N)c3c2)[C@H](C)CO1 [Example 87, N-(2-((R)-4-Cyanothiazolidin-3-yl)-2-oxoethyl)-6-((2R,5R)-2,5-dimethyl-morpholino)quinoline-4-carboxamide]
IC50 [2]: 760 nM | hFAP Binding assay k(off) (hFAP (M39-A757)): 0.00011 s⁻¹ | hFAP Binding assay k(on) (hFAP (M39-A757)): 2800000 M⁻¹ s⁻¹

SMILES: C[C@H]1OCCN(c2ccc3nccc(C(=O)NCC(=O)N4CSC[C@H]4C#N)c3c2)[C@H]1C [Example 81, N-(2-((R)-4-Cyanothiazolidin-3-yl)-2-oxoethyl)-6-((2R,3S)-2,3-dimethyl-morpholino)quinoline-4-carboxamide]
IC50 [2]: 1700 nM | hFAP Binding assay k(off) (hFAP (M39-A757)): 0.000063 s⁻¹ | hFAP Binding assay k(on) (hFAP (M39-A757)): 1400000 M⁻¹ s⁻¹

SMILES: N#C[C@@H]1CSCN1C(=O)CNC(=O)c1ccnc2ccc(N3CCC4(CC3)OCCCO4)cc12 [Example 227, (R)—N-(2-(4-cyanothiazolidin-3-yl)-2-oxoethyl)-6-(1,5-dioxa-9-azaspiro[5.5]undecan-9-yl)quinoline-4-carboxamide]
solubility (Kinetic solubility): 852 µM (≈ 410 µg/mL) | microsomal CLint [1]: 17 µL/min/mg | IC50 [2]: 600 nM | rHep CLint [4]: 2.8 μL/min/1E6

Molecules with a lower IC50 [2], results first:

solubility (Kinetic solubility; [5]): 2.5 µM (≈ 1.11 µg/mL) | microsomal CLint [1, 6]: 160 µL/min/mg | IC50 [2]: 230 nM | hFAP Binding assay k(off) (hFAP (M39-A757)): 0.0002 s⁻¹ | hFAP Binding assay k(on) (hFAP (M39-A757)): 2400000 M⁻¹ s⁻¹ | Kd (hFAP (M39-A757)): 0.083 nM | IC50 [3]: 0.11 nM | rHep CLint [4]: 75 μL/min/1E6
SMILES: N#C[C@@H]1CSCN1C(=O)CNC(=O)c1ccnc2ccc(-n3ccc4c3CCCC4)cc12 [Example 219, (R)—N-(2-(4-Cyanothiazolidin-3-yl)-2-oxoethyl)-6-(4,5,6,7-tetrahydro-1H-indol-1-yl)quinoline-4-carboxamide]

solubility (Kinetic solubility; [5]): 120 µM (≈ 55.1 µg/mL) | IC50 [2]: 200 nM | hFAP Binding assay k(off) (hFAP (M39-A757)): 18 s⁻¹ | hFAP Binding assay k(on) (hFAP (M39-A757)): 40000000000 M⁻¹ s⁻¹ | Kd (hFAP (M39-A757)): 0.38 nM | IC50 [3]: 0.51 nM | rHep CLint [4]: 100 μL/min/1E6
SMILES: N#C[C@@H]1CSCN1C(=O)CNC(=O)c1ccnc2ccc(N3CCOc4ccccc43)cc12 [Example 6, (R)—N-(2-(4-Cyanothiazolidin-3-yl)-2-oxoethyl)-6-(2,3-dihydro-4H-benzo[b][1,4]oxazin-4-yl)quinoline-4-carboxamide]

solubility (Kinetic solubility; [5]): 5.3 µM (≈ 2.23 µg/mL) | microsomal CLint [1, 6]: 40 µL/min/mg | IC50 [2]: 250 nM | hFAP Binding assay k(off) (hFAP (M39-A757)): 0.00013 s⁻¹ | hFAP Binding assay k(on) (hFAP (M39-A757)): 4500000 M⁻¹ s⁻¹ | Kd (hFAP (M39-A757)): 0.029 nM | IC50 [3]: 0.07 nM | rHep CLint [4]: 10 μL/min/1E6
SMILES: N#C[C@@H]1CSCN1C(=O)CNC(=O)c1ccnc2ccc(N3CC(C4CC4)C3)cc12 [Example 145, (R)—N-(2-(4-Cyanothiazolidin-3-yl)-2-oxoethyl)-6-(3-cyclopropylazetidin-1-yl)quinoline-4-carboxamide]

solubility (Kinetic solubility; [5]): 44 µM (≈ 17.8 µg/mL) | microsomal CLint [1, 6]: 43 µL/min/mg | IC50 [2]: 88 nM | hFAP Binding assay k(off) (hFAP (M39-A757)): 0.000016 s⁻¹ | hFAP Binding assay k(on) (hFAP (M39-A757)): 1100000 M⁻¹ s⁻¹ | Kd (hFAP (M39-A757)): 0.012 nM | IC50 [3]: 0.15 nM | rHep CLint [4]: 13 μL/min/1E6
SMILES: Cc1ccn(-c2ccc3nccc(C(=O)NCC(=O)N4CSC[C@H]4C#N)c3c2)c1 [Example 121, (R)—N-(2-(4-Cyanothiazolidin-3-yl)-2-oxoethyl)-6-(3-methyl-1H-pyrrol-1-yl)quinoline-4-carboxamide]

IC50 [2]: 330 nM | hFAP Binding assay k(off) (hFAP (M39-A757)): 0.00012 s⁻¹ | hFAP Binding assay k(on) (hFAP (M39-A757)): 1400000 M⁻¹ s⁻¹
SMILES: Cn1cc(-c2ccc3nccc(C(=O)NCC(=O)N4CSC[C@H]4C#N)c3c2)cn1 [Example 129, (R)—N-(2-(4-Cyanothiazolidin-3-yl)-2-oxoethyl)-6-(1-methyl-1H-pyrazol-4-yl)quinoline-4-carboxamide]
